Laboratory results as given in patent US20240327415A1, “Multicomponent Complexes, Including Salts, Crystalline Forms, and Hydrates and Solvates of ENT1 Inhibitors” (iTeos Belgium SA, priority 2023, published 2024).
Each block holds one molecule with its values, some of them ahead of it.

Legend:
Format in all cases: physicochemical
[1] = seven-day solid stability studies (ambient; 40° C./75% RH; 80° C.), XRPD and HPLC; design: key: Crystalline Form 2 di(hydrogen sulfate) trihydrate; Crystalline Form 3 di(hydrogen sulfate); M4: Crystalline Form 4 mono(hydrogen sulfate); Crystalline Form 6 di(hydrogen sulfate); 3 + 9: Mixture of Crystalline Form 3 di(hydrogen sulfate) and Crystalline Form 9 di(hydrogen sulfate); settings: 7 days, 80° C. (closed vial)
Method: (§1) In the experiment, one set of vials was exposed to ambient light, temperature and humidity conditions. Another was exposed openly to 40° C. and 75% RH conditions and a third was sealed and exposed to 80° C. conditions. After 7 days, XRPD and HPLC measurements were collected.
(§2) Example 12-Stability Studies of Amorphous Compound 1 (free base) and Crystalline Form 1 Compound 1 (free base): Seven-day stability studies were carried out comparing amorphous Compound 1 (free base) and crystalline Form 1 Compound 1 (free base) at 40° C./75% RH, under ambient conditions and at 80° C. After storage at 40° C./75% RH and 80° C., the amorphous material formed glassy solids which were pale yellow (40° C./75% RH) or orange (80° C.). It is likely that the material melted and re-solidified at 80° C. and deliquesced at 40° C./75% RH. […] (decrease in purity of ca. 11% area).
(§3) Example 15-Stabilities Studies-Crystalline Form 3 Compound 1 di(hydrogen sulfate) and Crystalline Form 4 Compound 1 mono(hydrogen sulfate): Seven-day stability studies were carried out on the prepared crystalline Form 3 Compound 1 di(hydrogen sulfate) and crystalline Form 4 Compound 1 mono(hydrogen sulfate) using the following conditions: (1) Ambient light, temperature and humidity conditions (open vial); (2) 40° C./75% RH (open vial); and (3) 80° C. (closed vial). […]

[2] = hydration mapping studies (slurries at different water activities, Example 17); settings: aw 0.1, dried 40° C. reduced pressure 24 hr
Method: Example 17—Hydration Mapping Studies-Crystalline Form 2 Compound 1 di(hydrogen sulfate) trihydrate, Crystalline Form 3 Compound 1 di(hydrogen sulfate), and Blend: The effects of different water activities on crystalline Form 2 Compound 1 di(hydrogen sulfate) trihydrate, crystalline Form 3 Compound 1 di(hydrogen sulfate) and a blend of the two were investigated. The “blend” was prepared by mixing crystalline Form 2 Compound 1 di(hydrogen sulfate) trihydrate and crystalline Form 3 Compound 1 di(hydrogen sulfate) in a 1:1 ratio. To the vials containing the required solid material, the appropriate solvent system was added to form slurries. The slurry samples were stirred at the required temperatures during and after the solvent addition. Where dissolution was observed post-solvent addition, additional solid was added to re-saturate the sample. After stirring at the required temperature for 48 hours, the residual solids left in the vials were analyzed by XRPD to assess the solid forms. The analyzed samples were then dried on the XRPD plate under reduced pressure at 40° C. for 24 hr. The dried samples were analyzed by XRPD.

[3] = seven-day solid stability studies (ambient; 40° C./75% RH; 80° C.), XRPD and HPLC
Method: as §1, §2
Example 15-Stabilities Studies-Crystalline Form 3 Compound 1 di(hydrogen sulfate) and Crystalline Form 4 Compound 1 mono(hydrogen sulfate): Seven-day stability studies were carried out on the prepared crystalline Form 3 Compound 1 di(hydrogen sulfate) and crystalline Form 4 Compound 1 mono(hydrogen sulfate) using the following conditions: (1) Ambient light, temperature and humidity conditions (open vial); (2) 40° C./75% RH (open vial); and (3) 80° C. (closed vial). After 7 days of storage under the specified conditions, XRPD and HPLC analyses were carried out on the residual solid materials, and the results are summarized in Table 51.
Example 18-Seven Day Stability Study on Crystalline Form 2 Compound 1 di(hydrogen sulfate) trihydrate: A 7-day stability study was conducted on crystalline Form 2 Compound 1 di(hydrogen sulfate) trihydrate using the following conditions: (1) ambient light, temperature, and humidity conditions (open vial); (2) 40° C., 75% RH (open vial); and (3) 80° C. (closed vial). After 7 days of storage under the specified, XRPD and HPLC analyses were carried out on the residual solid materials.

[4] = as above; design: key: Crystalline Form 3 di(hydrogen sulfate); Crystalline Form 9 di(hydrogen sulfate); Melt/Amorphous; settings: 7 days, sealed
Method: as §1, §2, §3

[5] = salt screen, XRPD of damp, dried and 40° C./75% RH stored samples (Salt Preparation Methods 1 and 2); design: key: A = amorphous; Evap. = isolated via evaporation; settings: L-Malic acid, 1 equiv.
Summary of the method: (§4)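 Free base (~25 mg) was stirred at 40 °C with 1.0 or 2.0 equiv. acid in the test solvent, then temperature-cycled 40–5 °C (0.1 °C/min, 1 h holds) with anti-solvent addition as needed. Solids were isolated at 5 °C and run by XRPD damp, after vacuum drying at ~40 °C for ~17–91 h, and after 24–48 h at 40 °C/75% RH.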

[6] = as above; settings: L-Malic acid, 1 equiv., AS Heptane
Summary of the method: as §4

[7] = as above; design: key: A = amorphous; * = predominantly; 1 = Form 1 Compound 1 L-malate; 2 = Form 2 Compound 1 L-malate; settings: L-Malic acid, 1 equiv.; MEK; AS Heptane
Method: Salt Preparation Method 1: Approximately 25 mg of Compound 1 (free base) was weighed out into 1.5 mL screw-cap vials and a stirrer bar was added. For solid counterions, the appropriate amount of acid (1.0 or 2.0 equiv.) was weighed into separate 1.5 mL screw-cap vials. 100 μL of the appropriate solvent system was added to both the Compound 1 and the solid counterions. Stock solutions of liquid counterions were prepared, such that 100 μL contained 1.0 or 2.0 equiv. of acid. See counterion and solvent lists in Table 60 and Table 61 respectively.
The samples were stirred at 40° C. for 5-10 min and then the acid solutions were added to Compound 1, rinsing out the transfer vial with a further 50 μL of solvent. […] Experiments were temperature cycled between 40° C. and 5° C. […]
Temperature cycling was then continued for ca. 16-69 h, followed by further ASA and temperature cycling if required. Material was isolated at 5° C. and analyzed damp by XRPD. All isolated material was dried under vacuum at ca. 40° C. for ca. 17-91 h then re-analyzed by XRPD. The XRPD plate was stored at 40° C./75% RH for 24-48 h and then samples re-analyzed. […] Any residual solids were analyzed by XRPD. […]
The experiments were stirred at 40° C. for ca. 1 h, and then temperature cycled between 40° C. and 5° C. with 0.1° C./min ramp and 1 h hold between each step. […] The damp and dried solids were subsampled and analyzed by XRPD. […]

SMILES: COc1cc(C(=O)O[C@@H]2CCCOc3cc(cc(OC)c3OC)C(=O)NCCCN3CCCN(CC2)CC3)cc(OC)c1OC.O=S(=O)(O)O.O=S(=O)(O)O [Form 3 di(hydrogen sulfate)]
XRPD [1]: 3 + 9
XRPD, hydration studies - dried samples ([2]; 20° C., 2-Propanol:Water): 3, PC
XRPD, hydration studies - dried samples ([2]; 20° C., Acetonitrile:Water): 3, PC
XRPD, hydration studies - dried samples ([2]; 50° C., 2-Propanol:Water): 1, PC
XRPD, hydration studies - dried samples ([2]; 50° C., Acetonitrile:Water): 3, PC
HPLC ([3]; 7 days, 40° C./75% RH (open vial)): 99.82 % area
HPLC ([3]; 7 days, 40° C./75% RH, open vial): 99.82 % area
HPLC ([3]; 7 days, 80° C. (closed vial)): 99.80 % area
HPLC ([3]; 7 days, 80° C., sealed): 99.80 % area
HPLC ([3]; 7 days, Ambient (open vial)): 99.84 % area
HPLC ([3]; 7 days, Ambient, open vial): 99.84 % area
HPLC ([3]; Input sample): 99.83 % area
XRPD [4]: 9

XRPD Analysis 40° C. 75% RH ([5]; Acetonitrile, AS tBME): A
XRPD Analysis Damp ([5]; Acetonitrile, AS tBME): A
XRPD Analysis Dry ([5]; Acetonitrile, AS tBME): A
XRPD Analysis 40° C. 75% RH ([5]; Ethanol, AS Heptane): A
XRPD Analysis 40° C. 75% RH ([5]; Ethyl acetate, AS Heptane): A
XRPD Analysis Damp ([5]; Ethyl acetate, AS Heptane): A
XRPD Analysis Dry ([5]; Ethyl acetate, AS Heptane): A
XRPD Analysis 40° C. 75% RH ([5]; IPA:H2O (75:25% v/v), AS tBME): A
XRPD Analysis Damp ([5]; IPA:H2O (75:25% v/v), AS tBME): A
XRPD Analysis Dry ([5]; IPA:H2O (75:25% v/v), AS tBME): A
XRPD Analysis 40° C. 75% RH ([5]; THE, AS Heptane): A
XRPD Analysis Damp ([5]; THE, AS Heptane): A
XRPD Analysis Dry ([5]; THE, AS Heptane): A
XRPD Analysis Damp ([6]; Ethanol): * A
XRPD Analysis Dry ([6]; Ethanol): * A
XRPD Analysis Damp ([6]; MEK): 1 + 2
XRPD Analysis Dry ([6]; MEK): 1 + 2
XRPD Analysis 40° C. 75% RH [7]: 1
SMILES: O=C(O)CC(O)C(=O)O [L-Malic acid, 1 equiv.]
